pIC50: −log10 of the molar value.
Molecular target: phosphorylated active hERK2 enzyme (Homo sapiens (Human), UniProt P28482)
Test: Active Human ERK2 (hERK2) Activity Assay (IMAP-FP)
Format: biochemical
Conditions: Table 6, 0.5 nM hERK2, 30 μM ATP, 10 point titration, read-out: AERK2 IC50
In short: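 IMAP detection beads in buffer with 24 mM NaCl stopped the reaction, and fluorescence polarization was read after 60 min binding.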

Sequence of phosphorylated active hERK2 enzyme (P28482 whole entry): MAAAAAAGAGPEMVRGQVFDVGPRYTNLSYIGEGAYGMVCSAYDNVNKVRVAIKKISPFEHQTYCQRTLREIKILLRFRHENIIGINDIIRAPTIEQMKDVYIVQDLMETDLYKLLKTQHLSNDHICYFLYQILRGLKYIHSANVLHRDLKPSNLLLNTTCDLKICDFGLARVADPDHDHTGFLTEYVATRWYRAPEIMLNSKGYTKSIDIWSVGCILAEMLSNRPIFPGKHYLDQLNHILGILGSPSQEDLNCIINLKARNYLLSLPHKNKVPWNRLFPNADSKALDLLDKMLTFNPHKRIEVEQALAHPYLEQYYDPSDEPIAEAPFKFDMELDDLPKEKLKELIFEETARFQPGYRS

C[C@@H](NC(=O)Nc1cc2[nH]nc(N[C@@H]3COC[C@@H]3F)c2cn1)c1ccccc1 [Example 84, 1-(3-{[(3R,4R)-4-fluorotetrahydrofuran-3-yl]amino}-1H-pyrazolo[4,3-c]-pyridin-6-yl)-3-[(1R)-1-phenylethyl]urea] showed a pIC50 of 8.36.
In the case of C[C@@H](NC(=O)Nc1cc2[nH]nc(N[C@H]3COC[C@H]3F)c2cn1)c1ccccc1 [Example 85, 1-(3-{[(3S,4S)-4-fluorotetrahydrofuran-3-yl]amino}-1H-pyrazolo[4,3-c]-pyridin-6-yl)-3-[(1R)-1-phenylethyl]urea], the pIC50 was 9.10.
Compound C[C@H](Nc1n[nH]c2cc(NC(=O)N[C@H](C)c3ccccc3)ncc12)c1ccccn1 [Example 86, 1-[(1R)-1-phenylethyl]-3-(3-{[(1S)-1-pyridin-2-ylethyl]amino}-1H-pyrazolo[4,3-c]-pyridin-6-yl)urea] has a pIC50 of 8.33.
Compound C[C@@H](NC(=O)Nc1cc2[nH]nc(N[C@H](C)c3ccccn3)c2cn1)c1ccccc1 [Example 87, 1-[(1R)-1-phenylethyl]-3-(3-{[(1R)-1-pyridin-2-ylethyl]amino}-1H-pyrazolo[4,3-c]-pyridin-6-yl)urea] has a pIC50 of 7.87.
Compound C[C@@H](NC(=O)Nc1cc2[nH]nc(N[C@@H]3COC[C@H]3F)c2cn1)c1ccccc1 [Example 88, 1-(3-{[(3R,4S)-4-fluorotetrahydrofuran-3-yl]amino}-1H-pyrazolo[4,3-c]-pyridin-6-yl)-3-[(1R)-1-phenylethyl]urea] has a pIC50 of 8.44.
Work on C[C@@H](NC(=O)Nc1cc2[nH]nc(N3CCC4(CC3)COC4)c2cn1)c1ccccc1 [Example 89, 1-[3-(2-oxa-7-azaspiro[3.5]non-7-yl)-1H-pyrazolo[4,3-c]pyridin-6-yl]-3-[(1R)-1-phenylethyl]-urea] yielded a pIC50 of 8.04.
In the case of C[C@@H](NC(=O)Nc1cc2[nH]nc(N3CC[C@@H]3C)c2cn1)c1ccccc1 [Example 90, 1-{3-[(2S)-2-methylazetidin-1-yl]-1H-pyrazolo[4,3-c]-pyridin-6-yl}-3-[(1R)-1-phenylethyl]-urea], the pIC50 was 7.83.
With C[C@@H]1CCN1c1n[nH]c2cc(NC(=O)N[C@H](C)c3ccccc3)ncc12 [Example 91, 1-{3-[(2R)-2-methylazetidin-1-yl]-1H-pyrazolo[4,3-c]-pyridin-6-yl}-3-[(1R)-1-phenylethyl]-urea] the pIC50 was 7.28.
In the case of C[C@@H](NC(=O)Nc1cc2[nH]nc(N3CC(C)(O)C3)c2cn1)c1ccccc1 [Example 92, 1-[3-(3-hydroxy-3-methylazetidin-1-yl)-1H-pyrazolo[4,3-c]-pyridin-6-yl]-3-[(1R)-1-phenylethyl]urea], the pIC50 was 7.56.
Compound C[C@@H](NC(=O)Nc1cc2[nH]nc(N3CC(C#N)C3)c2cn1)c1ccccc1 [Example 93, 1-[3-(3-cyanoazetidin-1-yl)-1H-pyrazolo[4,3-c]-pyridin-6-yl]-3-[(1R)-1-phenylethyl]urea] has a pIC50 of 8.00.
Compound C[C@@H](NC(=O)Nc1cc2[nH]nc(N3CC(C(C)(C)O)C3)c2cn1)c1ccccc1 [Example 94, 1-{3-[3-(1-hydroxy-1-methylethyl)-azetidin-1-yl]-1H-pyrazolo[4,3-c]-pyridin-6-yl}-3-[(1R)-1-phenylethyl]-urea] has a pIC50 of 7.60.
C[C@@H](O)[C@@H](NC(=O)Nc1cc2[nH]nc(N3CCOCC3)c2cn1)c1ccc(F)cc1 [Example 97, 1-[(1S,2R)-1-(4-fluorophenyl)-2-hydroxypropyl]-3-(3-morpholin-4-yl-1H-pyrazolo[4,3-c]-pyridin-6-yl)urea] was tested, and the pIC50 was 9.70.
Compound C[C@H](O)[C@@H](NC(=O)Nc1cc2[nH]nc(N3CCOCC3)c2cn1)c1ccc(F)cc1 [Example 98, 1-[(1S,2S)-1-(4-fluorophenyl)-2-hydroxypropyl]-3-(3-morpholin-4-yl-1H-pyrazolo[4,3-c]-pyridin-6-yl)urea] has a pIC50 of 9.70.
Compound CC(C)(O)[C@@H](NC(=O)Nc1cc2[nH]nc(N3CCOC(C(F)(F)F)C3)c2cn1)c1ccccc1 (stereo partly drawn) [Example 99, 1-[(1S)-2-hydroxy-2-methyl-1-phenylpropyl]-3-{3-[2-(trifluoromethyl)-morpholin-4-yl]-1H-pyrazolo[4,3-c]-pyridin-6-yl}urea] has a pIC50 of 9.22.
CC(C)(O)[C@@H](NC(=O)Nc1cc2[nH]nc(N3CCC3)c2cn1)c1ccc(F)cc1 [Example 100, 1-(3-azetidin-1-yl-1H-pyrazolo[4,3-c]-pyridin-6-yl)-3-[(1S)-1-(4-fluorophenyl)-2-hydroxy-2-methylpropyl]urea] was tested, and the pIC50 was 8.96.
CC(C)(O)[C@@H](NC(=O)Nc1cc2[nH]nc(N3CCC3)c2c(CO)n1)c1ccc(F)cc1 [Example 101, 1-[3-azetidin-1-yl-4-(hydroxymethyl)-1H-pyrazolo[4,3-c]-pyridin-6-yl]-3-[(1S)-1-(4-fluorophenyl)-2-hydroxy-2-methylpropyl]urea] showed a pIC50 of 9.05.
For C[C@H]1CN(c2n[nH]c3cc(NC(=O)N[C@@H](c4ccccc4)C(C)(C)O)ncc23)C[C@H](C(F)(F)F)O1 [Example 102, 1-[(1S)-2-hydroxy-2-methyl-1-phenylpropyl]-3-{3-[(2S,6R)-2-methyl-6-(trifluoromethyl)-morpholin-4-yl]-1H-pyrazolo[4,3-c]-pyridin-6-yl}urea], the pIC50 was 8.57.
Work on C[C@@H]1CN(c2n[nH]c3cc(NC(=O)N[C@@H](c4ccccc4)C(C)(C)O)ncc23)C[C@H](C(F)(F)F)O1 [Example 103, 1-[(1S)-2-hydroxy-2-methyl-1-phenylpropyl]-3-{3-[(2R,6R)-2-methyl-6-(trifluoromethyl)-morpholin-4-yl]-1H-pyrazolo[4,3-c]-pyridin-6-yl}urea] yielded a pIC50 of 8.96.
With CC(C)(O)[C@@H](NC(=O)Nc1cc2[nH]nc(N3CCC3)c2cn1)c1ccccc1 [Example 104, 1-(3-azetidin-1-yl-1H-pyrazolo[4,3-c]pyridin-6-yl)-3-[(1S)-2-hydroxy-2-methyl-1-phenylpropyl]urea] the pIC50 was 8.80.
Compound C[C@@H](O)[C@@H](NC(=O)Nc1cc2[nH]nc(N3CCC3)c2cn1)c1ccc(F)cc1 [Example 105, 1-(3-azetidin-1-yl-1H-pyrazolo[4,3-c]pyridin-6-yl)-3-[(1S,2R)-1-(4-fluorophenyl)-2-hydroxypropyl]urea] has a pIC50 of 8.55.
For Cc1nc(NC(=O)N[C@@H](c2ccc(F)cc2)[C@@H](C)O)cc2[nH]nc(N3CCOCC3)c12 [Example 106, 1-((1S,2R)-1-(4-Fluorophenyl)-2-hydroxypropyl)-3-(4-methyl-3-morpholino-1H-pyrazolo[4,3-c]pyridin-6-yl)urea], the pIC50 was 9.30.
Work on Cc1nc(NC(=O)N[C@@H](c2ccccc2)C(C)(C)O)cc2[nH]nc(N3CCOCC3)c12 [Example 107, 1-[(1S)-2-hydroxy-2-methyl-1-phenylpropyl]-3-(4-methyl-3-morpholin-4-yl-1H-pyrazolo[4,3-c]-pyridin-6-yl)urea] yielded a pIC50 of 9.52.
C[C@@H](O)[C@@H](NC(=O)Nc1cc2[nH]nc(N3CCOCC3)c2c(CO)n1)c1ccc(F)cc1 [Example 108, 1-[(1S,2R)-1-(4-Fluorophenyl)-2-hydroxypropyl]-3-[4-(hydroxymethyl)-3-morpholin-4-yl-1H-pyrazolo[4,3-c]pyridin-6-yl]urea] showed a pIC50 of 9.40.
Compound CC(C)(O)[C@@H](NC(=O)Nc1cc2[nH]nc(N3CCOCC3)c2c(CO)n1)c1ccccc1 [Example 109, 1-[4-(hydroxymethyl)-3-morpholin-4-yl-1H-pyrazolo[4,3-c]-pyridin-6-yl]-3-[(1S)-2-hydroxy-2-methyl-1-phenylpropyl]urea] has a pIC50 of 9.52.
In the case of Cc1nc(NC(=O)N[C@@H](c2ccc(F)cc2)C(C)(C)O)cc2[nH]nc(N3CCC3)c12 [Example 110, 1-(3-azetidin-1-yl-4-methyl-1H-pyrazolo[4,3-c]-pyridin-6-yl)-3-[(1S)-1-(4-fluorophenyl)-2-hydroxy-2-methylpropyl]urea], the pIC50 was 8.89.
For C[C@@H](O)[C@@H](NC(=O)Nc1cc2[nH]nc(N3CC4CC3CO4)c2cn1)c1ccccc1 (stereo partly drawn) [Example 111, 1-[(1S,2R)-2-hydroxy-1-phenylpropyl]-3-[3-(2-oxa-5-azabicyclo[2.2.1]-hept-5-yl)-1H-pyrazolo[4,3-c]-pyridin-6-yl]urea], the pIC50 was 9.30.
Compound [2H]C([2H])([2H])C([2H])([2H])Nc1n[nH]c2cc(NC(=O)N[C@H](C)c3ccccc3)ncc12 [Example 113, (R)-1-(3-((ethyl-D5)amino)-1H-pyrazolo[4,3-c]-pyridin-6-yl)-3-(1-phenylethyl)urea] has a pIC50 of 8.80.
[2H]C([2H])([2H])C(=O)Nc1n[nH]c2cc(NC(=O)N[C@H](C)c3ccccc3)ncc12 [Example 115, (R)-N-(6-(3-(1-phenylethyl)ureido)-1H-pyrazolo[4,3-c]pyridin-3-yl)(acetamide-D3)] gave a pIC50 of 9.10.
C[C@@H](NC(=O)Nc1cc2[nH]nc(Nc3ccc(F)cc3)c2cn1)c1ccccc1 [Example 116, 1-{3-[(4-fluorophenyl)-amino]-1H-pyrazolo[4,3-c]pyridin-6-yl}-3-[(1R)-1-phenylethyl]urea] showed a pIC50 of 7.03.
In the case of O=C(Nc1cc2[nH]nc(Nc3ccccc3Cl)c2cn1)N[C@@H]1CCCOc2ccccc21 [Example 119, 1-{3-[(2-chlorophenyl)-amino]-1H-pyrazolo[4,3-c]pyridin-6-yl}-3-[(5R)-2,3,4,5-tetrahydro-1-benzoxepin-5-yl]urea], the pIC50 was 7.22.
COC[C@@H](NC(=O)Nc1cc2[nH]nc(Nc3ccccc3Cl)c2cn1)c1ccccc1 [Example 120, 1-{3-[(2-chlorophenyl)-amino]-1H-pyrazolo[4,3-c]pyridin-6-yl}-3-[(1S)-2-methoxy-1-phenylethyl]urea] gave a pIC50 of 7.57.
COc1ccccc1Nc1n[nH]c2cc(NC(=O)N[C@H](C)c3ccccc3)ncc12 [Example 121, 1-{3-[(2-methoxyphenyl)amino]-1H-pyrazolo[4,3-c]pyridin-6-yl}-3-[(1R)-1-phenylethyl]urea] gave a pIC50 of 7.61.
COC[C@@H](NC(=O)Nc1cc2[nH]nc(Nc3ccccc3OC)c2cn1)c1ccccc1 [Example 122, 1-{3-[(2-methoxyphenyl)-amino]-1H-pyrazolo[4,3-c]pyridin-6-yl}-3-[(1S)-2-methoxy-1-phenylethyl]urea] gave a pIC50 of 8.08.
